Assay results as given in publication PMC12257397, “Scaffold Hopping Strategy toward New 4‑Aminoquinazolines Active Against Extracellular and Intracellular Mycobacterium tuberculosis” (ACS Medicinal Chemistry Letters, 2025).
Converted amounts (≈) assume the structure as drawn.

Assays:
M. tuberculosis H37Rv-LP = tested on: M. tuberculosis H37Rv-LP; design: method as in PMID 35262374, PMID 29035551; settings: given in Figure 1A; cited from earlier work
[1] = tested on: M. tuberculosis H37Rv (ATCC 27294); assay: MIC by resazurin reduction microplate assay (REMA); format: cell-based; settings: Mycobacterium tuberculosis, converted from μg/mL to μM
[2] = tested on: M. tuberculosis H37Rv-LP (ATCC 25618); assay: microbe, parasite or virus in culture; format: cell-based; settings: Mycobacterium tuberculosis, 120 h, concentration inhibiting 90% of growth, 5 days, read-out: MIC parental wild-type strain H37Rv-LP
in vitro [3] = settings: African green monkey
in vitro [4] = settings: African green monkey; remark: listed apart in the source
in vitro [5] = settings: human
[6] = tested on: M. tuberculosis H37Rv (Erdman); design: method as in PMID 31511370; settings: given in Figure 1A; cited from earlier work
[7] = tested on: M. tuberculosis qcrCAB (wt); design: method as in PMID 31511370; settings: given in Figure 1A; cited from earlier work
[8] = tested on: H37Rv-LP (ATCC 25618) inside THP-1 cells; assay: microbe, parasite or virus in culture; format: cell-based; settings: Mycobacterium tuberculosis, 72 hours; for IC50: growth of H37Rv-LP inside THP-1 cells inhibited by 50%, read-out: Intracellular IC50; for IC90: growth of H37Rv-LP inside THP-1 cells inhibited by 90%, read-out: Intracellular IC90
[9] = tested on: Staphylococcus aureus (ATCC 29213); assay: Antimicrobial spectrum MIC, S. aureus; format: cell-based
Escherichia coli RFM 795 = assay: Antimicrobial spectrum MIC, E. coli; format: cell-based; settings: Escherichia coli RFM 795 (lptD mutation)
[10] = tested on: Mycobacterium abscessus 103R; assay: Antimicrobial spectrum MIC, M. abscessus; format: cell-based
[11] = tested on: Mycobacterium avium 2285S (smooth); assay: Antimicrobial spectrum MIC, M. avium smooth; format: cell-based
[12] = tested on: Mycobacterium avium 2285R (rough); assay: Antimicrobial spectrum MIC, M. avium rough; format: cell-based
[13] = tested on: Mycobacterium smegmatis mc2155; format: cell-based
[14] = Microsomal stability, mouse liver microsomes (MLM); format: in vitro ADME; settings: male, BALB/c, pH 7.4; for half-life at 6 μM: mouse liver microsomes, read-out: MLM t1/2
Experimental: (§1) 1.5. Microsomal stability
(§2) Test compound (6 μM) was incubated at 37 °C with male BALB/c mouse liver microsomes or mixed gender human liver microsomes (Xenotech LLC; 0.5 mg /mL, […] potassium phosphate buﬀer, pH 7.4) and the reaclon started with addilon of excess NADPH (2 mM, pH 7.4). Samples (35 µL) were removed at lme 0, 5, 10, 20, 30, and 60 min and mixed with 35 µL of acetonitrile, methanol, wate r s o l u lon (2:1:1) containing […] internal standard terfenadine and 0.05% v/v acelc acid. The samples were centrifuged at 4000 rpm for 10 min and the supernatant was analyzed using a 1100 HPLC and Single Quad 6120 (Agilent, USA). Compounds were tested in duplic ate, and an exponenlal decay curve ﬁt was used on the ralo of peak area of test compound to internal standard at each lme point to calculate the rate constant (k). The rate of intrinsic clearance (CLint) of each test compound was then calculated using the following equalon: CLint (mL/min/mg) = k x V where V was mL/mg protein. Verapamil (6 μM) was used as a posilve control. Incubalon of each compound with microsomes in the absence of NADPH and analyzed at 0 and 60 min was used as the negalve control.
(§3) The human biological samples were sourced ethically, and their research use was in accord with the terms of the informed consents.

[15] = Microsomal stability, human liver microsomes (HLM); format: in vitro ADME; settings: both sexes, pH 7.4; for half-life at 6 μM: human liver microsomes, read-out: HLM t1/2
Experimental: as §1, §2, §3

in vitro [16] = settings: human; remark: listed apart in the source
in vitro [17] = settings: human; remark: listed apart in the source
[18] = tested on: M. tuberculosis H37Rv-LP (ATCC 25618); assay: ATP depletion assay (BacTiter-Glo); format: cell-based, Mycobacterium tuberculosis; settings: compared to the positive control Q203

SMILES	MIC H37Rv-LP (M. tuberculosis H37Rv-LP) [µM]	MIC [1] [µM]	MIC [2] [µM]	CC50 at 72 h (in vitro [5]; CC50 HepG2+Gal) [µM]	CC50 at 72 h (in vitro [5]; CC50 HepG2+Glu) [µM]	IC50 [8] [µM]	IC90 [8] [µM]	CIM 29213 [9] [µM]	CIM RFM 795 (Escherichia coli RFM 795) [µM]	CIM 103R [10] [µM]	CIM 2285S [11] [µM]	CIM 2285R [12] [µM]	CIM mc2155 [13] [µM]	microsomal CLint at 6 μM ([14]; mouse, microsomes) [µL/min/mg]	half-life at 6 μM [14] [min]	microsomal CLint at 6 μM ([15]; human, microsomes) [µL/min/mg]	half-life at 6 μM [15] [min]	CC50 at 72 h (in vitro [16]) [µM]	CC50 at 72 h (in vitro [17]) [µM]	other results
FC(F)(F)c1ccc(CCNc2cc(-c3ccccn3)nc3ncnn23)cc1 [1 (TAP)]	1.4 (≈ 0.538 µg/mL)																			
Cc1nc(NCCc2ccccc2)c2cc(I)ccc2n1 [9d]		3.2 (≈ 1.25 µg/mL)	0.95 (≈ 0.37 µg/mL)	5.1	10.9															CC50 at 72 h (in vitro [3]): 11.7 µM; CC50 at 72 h (in vitro [4]): 11.7 µM
CCc1nc2ccc(C)cc2n1CCCNc1ccccc1 [2 (FABA)]	0.056 (≈ 0.0164 µg/mL)																			
CCc1nc(NCCCc2ccccc2)c2cc(C)sc2n1 [3 (CWHM-1023)]																				IC50 [6]: 0.042 µM; IC50 [7]: 0.025 µM
Cc1nc(NCCCc2ccccc2)c2cc(I)ccc2n1 [18d]		1.6 (≈ 0.645 µg/mL)	0.58 (≈ 0.234 µg/mL)	13	20.3	0.47	1.2	> 100	> 100	> 100	> 100	> 100	> 12.4	202	6.9	243	5.7	> 20	18.3	remaining at 5 min, 6 μM ([14]; mouse, microsomes): 63%; remaining at 20 min, 6 μM ([15]; human, microsomes): 9%
Cc1nc(NCCCc2ccccc2)c2cc(Br)ccc2n1 [18c]		0.45 (≈ 0.16 µg/mL)	0.28 (≈ 0.0998 µg/mL)	9.7	19.1	0.16	0.45	> 100	> 100	> 100	> 100	> 100	> 56.1	354	3.9	184	7.5	13.8	13.2	remaining at 20 min, 6 μM ([14]; mouse, microsomes): 2%; remaining at 0.5 h, 6 μM ([15]; human, microsomes): 6%; ATP depletion profile [18]: none of the selected molecules produced a significant ATP depletion profile
